Values of other authors, collected in patent US20080113031A1, “Minicapsule Formulations” (priority 2004, published 2008).
Blank lines part the entries; values can stand above or below the molecule they belong to.

Legend:
[1] = not given; remark: listed apart in the source

- solubility in water: practically insoluble
Molecule: COCCOC(=O)C1=C(C)NC(C)=C(C(=O)OC(C)C)C1c1cccc([N+](=O)[O-])c1 (centres unmarked) [Nimodipine]

B1: PAL from Rhodosporidium toruloides: phenylalanine ammonia-lyase from Rhodosporidium toruloides (protein, UniProt P11544 1-716, looked up)
Phenylalanine/tyrosine …: MAPSLDSISHSFANGVASAKQAVNGASTNLAVAGSHLPTTQVTQVDIVEKMLAAPTDSTLELDGYSLNLGDVVSAARKGRPVRVKDSDEIRSKIDKSVEFLRSQLSMSVYGVTTGFGGSADTRTEDAISLQKALLEHQLCGVLPSSFDSFRLGRGLENSLPLEVVRGAMTIRVNSLTRGHSAVRLVVLEALTNFLNHGITPIVPLRGTISASGDLSPLSYIAAAISGHPDSKVHVVHEGKEKILYAREAMALFNLEPVVLGPKEGLGLVNGTAVSASMATLALHDAHMLSLLSQSLTAMTVEAMVGHAGSFHPFLHDVTRPHPTQIEVAGNIRKLLEGSRFAVHHEEEVKVKDDEGILRQDRYPLRTSPQWLGPLVSDLIHAHAVLTIEAGQSTTDNPLIDVENKTSHHGGNFQAAAVANTMEKTRLGLAQIGKLNFTQLTEMLNAGMNRGLPSCLAAEDPSLSYHCKGLDIAAAAYTSELGHLANPVTTHVQPAEMANQAVNSLALISARRTTESNDVLSLLLATHLYCVLQAIDLRAIEFEFKKQFGPAIVSLIDQHFGSAMTGSNLRDELVEKVNKTLAKRLEQTNSYDLVPRWHDAFSFAAGTVVEVLSSTSLSLAAVNAWKVAAAESAISLTRQVRETFWSAASTSSPALSYLSPRTQILYAFVREELGVKARRGDVFLGKQEVTIGSNVSKIYEAIKSGRINNVLLKMLA
- activity at pH 2.2 [1]: no activity
